The subject of one test is HCC1806 cells. Description: Cell proliferation inhibition assay (MTT, 7 days). As to conditions: Homo sapiens, HCC1806, 168 h, HCC1086 [sic], 7 days incubation. It counts as cell-based. In outline:
(§1)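 Cells were seeded per well at 3000 (MCF7, T47D), 2500 (OVCAR3) or 2000 (HCC1806) and attached overnight. Nine 3-fold compound dilutions (10000-1.52 nM before addition to cells, 0.1% DMSO medium) were applied for 7 days, refreshed on day 4, in 4 replicates. MTT (3 h) was read at 570 nm, normalised to DMSO and blank, and IC50 fitted by three-parameter curve.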

Another test has as its system MCF7 cells. In words: Cell proliferation inhibition assay (MTT, 7 days). It counts as cell-based. As to conditions: Homo sapiens, 168 h, 7 days incubation. In outline: as §1
In another test the test system is OVCAR3 cells. Description: Cell proliferation inhibition assay (MTT, 7 days). It counts as cell-based. The note with it: Homo sapiens, OVCAR-3, 168 h, 7 days incubation. The gist of the method:
as §1

Another test relates to T47D cells. Description: Cell proliferation inhibition assay (MTT, 7 days). The note with it: Homo sapiens, 168 h, 7 days incubation. It counts as cell-based. The gist of the method: as §1
For the next test, the system named is xMCF-7/Palbo-R cells. In words: xMCF-7/Palbo-R xenograft tumor model. It counts as in vivo. The note with it: oral tube feeding twice daily for 20 days, Balb/c nude female mice. The protocol:
To establish a xenograft tumor model, 1×10^7 xMCF-7/Palbo-R cells were suspended in 0.2 mL of a mixture of Matrigel and […] (1:1) and injected subcutaneously into 6-8 week-old Balb/c nube female mice. Tumor growth was observed periodically, and the volume (volume=½×(length×width 2)) was measured with a vernier caliper. When the tumors grew to an average volume of 100˜150 mm3, the drug was administered to mice (12 days after inoculation) in random groups according to the tumor size and their body weights. […] The drugs were administered by oral tube feeding twice daily for 20 days. Tumor volume and animal weight were measured twice a week and continued until the end of the experiment. Dosing day was defined as day 0. Measurement time points were day 0, day 3, day 7, day 10, day 14, day 17 and day 20. All mice were euthanized by cervical dislocation. At the end of the experiment, tumors were collected and weighed to calculate TGI values (see Table 4).

The test system of another test is OVCAR-3 cells. Description: OVCAR-3 xenograft tumor model. It counts as in vivo. As to conditions: 30 mg/kg, oral tube feeding twice daily for 21 days, BALB/c nude female mice. The protocol:
OVCAR-3 cells were cultured in RPMI1640 culture medium containing 20% fetal bovine serum and 10 μg/mL Insalin. Cells in the exponential growth phase were collected, and the cells were resuspended in the mixed solution of PBS and Matrigel in a ratio of 1:1 to a suitable concentration for subcutaneous tumor inoculation in nude mice.
To establish a xenograft tumor model, 1×10^7 OVCAR-3 cells were suspended in 0.2 mL of a mixture of PBS and Matrigel (1:1) and injected subcutaneously into 6-8-week-old BALB/c nube female mice on the right back. Tumor growth was observed periodically, and the volume (volume=½[…](length×width 2)) was measured with a vernier caliper. When the tumors grew to an average volume of 100˜150 mm^3, the drug was administered to mice (27 days after inoculation) in random groups according to the tumor size and their body weights. […] Tumor volume and animal weight were measured twice a week and continued until the end of the experiment. Dosing day was defined as day 0. Measurement time points were day 0, day 3, day 7, day 10, day 14, day 17 and day 21. All mice were euthanized by cervical dislocation. At the end of the experiment, tumors were collected and weighed to calculate TGI values (see Table 5).

The subject of another test is MV4-11 cells. Description: MV4-11 xenograft tumor model. The class given is in vivo. As to conditions: oral tube feeding twice a day for 15 days, NOD/SCID mice. Here is the method: MV-4-11 cells were cultured in IMEM culture medium containing 10% fetal bovine serum. Cells in the exponential growth phase were collected, and the cells were resuspended in PBS to a suitable concentration for subcutaneous tumor inoculation in nude mice.
To establish a xenograft tumor model, 5×10^6 MV4-11 cells were suspended in 0.1 mL of a 1:1 mixture of PBS and Matrigel and injected subcutaneously into the right dorsal side of 6-8-week-old NOD/SCID mice. Tumor growth was observed periodically, and the volume (volume=½×(length×width^2)) was measured with a vernier caliper. When the tumors grew to an average volume of 100˜150 mm^3, the drug was administered to mice (12 days after inoculation) in random groups according to the tumor size and their body weights. […] Among them, the mice in the Vehicle, 10 mg/kg TY-3301, 10 mg/kg C3, and 20 mg/kg C3 groups were administered twice a day by oral tube feeding for 15 days, and the mice in the 20 mg/kg TY-3300 group were administered once a day by oral tube feeding for 15 days. Tumor volume and animal weight were measured twice a week and continued until the end of the experiment. Dosing day was defined as day 0. Measurement time points were day 0, day 3, day 7, day 10, day 14, and day 15. All mice were euthanized by cervical dislocation. At the end of the experiment, tumors were collected and weighed to calculate TGI values (see Table 6).

Data on two molecules can be found in patent publication US20240287065A1, “COMPOUND AS CDK KINASE INHIBITOR AND USE THEREOF” (TYK MEDICINES (ZHENGZHOU) , INC., priority 2021, published 2024).

Structures are written as SMILES.

What is called IC50 is the concentration that inhibits the measured activity by half. A higher IC50 goes with weaker potency. What is called TGI is the reduction of tumour growth relative to the control group. Read a low TGI as little slowing of growth.

Take `C[C@@]1(O)CCC[C@H]1n1c(=O)c(OC(F)F)cc2cnc(NC3CCN(S(C)(=O)=O)CC3)nc21` [Example 3]: the IC50 in the test with HCC1806 cells is 50 to 5200 nM; in the test on MCF7 cells, 50 to 5200 nM; in the test on OVCAR3 cells, ≤ 50 nM; with T47D cells it was 50 to 5200 nM. Also, the TGI with xMCF-7/Palbo-R cells (10 mg/kg) was 64.4%; in the test on xMCF-7/Palbo-R cells (20 mg/kg) it was 64.6%; in the test on OVCAR-3 cells, 71.3%; in the test on MV4-11 cells (10 mg/kg), 69.5%; with MV4-11 cells (20 mg/kg) it was 95.3%.
In the case of `C[C@@]1(O)CCC[C@H]1n1c(=O)c(C(F)F)cc2cnc(NC3CCN(S(C)(=O)=O)CC3)nc21` [PF-06873600, reference compound], the IC50 in the test with HCC1806 cells was 50 to 5200 nM; in the test on MCF7 cells it was 50 to 5200 nM; with OVCAR3 cells it was 50 to 5200 nM; in the test with T47D cells, ≤ 50 nM. In addition, the TGI with xMCF-7/Palbo-R cells (10 mg/kg) stood at 36.2%; with OVCAR-3 cells, 52.6%; in the test on MV4-11 cells (10 mg/kg), 60.9%.
